Publication PMC8750417, “Intracellular Amplifiers of Reactive Oxygen Species Affecting Mitochondria as Radiosensitizers” (Cancers, 2021)

Tests used:
[1] = test system: chronic lymphocytic leukemia (CLL) cells; assay: Viability of primary CLL cells (CellTiter Glo); type: cell-based, human; settings: 48 h
Excerpt: Determination of viability of primary cancer (CLL) and normal (MNC) cells in the […]
Clinical samples from chronic lymphocytic leukemia (CLL) patients (N=6, CLL cells) and healthy donors (N=6; peripheral blood mononuclear cells, MNCs) were collected at the University Hospital Heidelberg, Germany. Informed consent was obtained in accordance with the Declaration of Helsinki. Sample collection and analysis was approved by the ethics committee of the University of Heidelberg (S-254/2016). Blood was separated by a Ficoll gradient (GE Healthcarey), and cells were cryopreserved. Drug sensitivity screening was performed in 384-well format (Greiner Bio One) with 10 different prodrug […]
4x10^4 cells per well. Cells were cultured in RPMI-1640 (Invitrogen) supplemented with penicillin/streptomycin (Invitrogen), L-glutamine (Invitrogen) and 10% pooled and heat inactivated AB-type human serum (Sigma-Aldrich). Cell viability was assessed by quantification of ATP (CellTiter Glo®, Promega) 48 hours after drug application.
Luminescence was measured on a Tecan Infinite F200 Microplate Reader. Viability was calculated as % of solvent (DMSO) treated control. Representative plots of cell viability

Jurkat cells = assay: Total intracellular ROS (CM-DCFH-DA), Jurkat; type: cell-based, human; settings: 1 h
Method: Monitoring total intracellular ROS (tROS)
A2780 cells were seeded in RPMI 1640 medium containing 5% FBS, 1% L-glutamine and 1% penicillin/streptomycin in a 24-well microtiter plate (total volume 0.5 mL) at a density of 200 cells/µL one day before the experiment. On the day of the experiment, the cells were washed twice with DPBS buffer and the medium was replaced with HBSS (Hanks' Balanced Salt solution, 500 μL). CM-DCFH-DA (5-(6-)chloromethyl-2',7'- dichlorodihydrofluorescein diacetate, Thermo- Fisher) solution (0.1 mM in DMSO, 5 μL) was added (final concentration 1 µM) and the cells were incubated in the dark chamber filled with CO2 (5%) at 37 °C for 15 min. […] Finally, the fluorescence of live cells (λex = 488 nm, λem = 525 nm) in the suspensions was determined by using flow cytometry (Figure 4A, 5C).
Intracellular ROS release in Jurkat cells was monitored analogously (Figure S58).
Figure S58. […] OY-axis “Fluorescence”: the increase of the mean fluorescence (λex = 488 […]

[2] = Solubility in RPMI 1640 medium, precipitation seen by bright field optical microscopy; settings: DMSO 1%
Method: The latter medium was selected, since we used it for the cellular assays. […] Then we monitored the formation of (not detectable in the previous experiment) aggregated species in prodrug solutions that appeared transparent (concentrations < 50 µM) by using dynamic light scattering. […]
Solubility of drugs in aqueous buffers
Observing prodrug precipitation by using bright field optical microscopy […]
glutamine (1 %), and penicillin/streptomycin (1 %) was filled into 96-well microtiter plates (100 µL for each well) and compounds in DMSO stock solution (1 µL) were added. Each well was monitored by using bright field optical microscopy both immediately after […]

Structure (SMILES): CC1(C)OB(c2ccc(COC(=O)N(Cc3cn(Cc4ccc(Cn5cc(Cc6ccccc6)nn5)cc4)nn3)[c-]3cccc3)cc2)OC1(C)C.[Fe+2].c1cc[cH-]c1 [2c]
- IC50 ([1]; primary CLL cells from six patients): 6 ± 2 µM
- cancer cell specificity, primary CLL cells vs MNCs ([1]; viability of CLL vs MNC, for 2c at 3.3 and 10 µM): significantly more toxic in the cancer cells than in the normal cells
- total ROS (tROS) vs background (Jurkat cells): significantly higher than its background levels
- Solubility ([2]; 48 h incubation in RPMI 1640, FBS 5%, first signs of precipitation): 30 µM
- first signs of precipitation ([2]; immediately after dilution in RPMI 1640, FBS 5%): 30 µM
